Experimental findings from PubChem BioAssay (NCI) are described below.

Test systems include SK-OV-3 ovarian; HCT-116 colon; HCC-2998 colon; OVCAR-8 ovarian; IGROV1 ovarian; NCI-H226 lung; U251 CNS; CAKI-1 renal; MDA-MB-231 breast.
Test in all cases: DTP human tumour cell line panel, 48 h

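Values below derive from 48-hour exposures of cells grown in 96-well plates, with endpoints linearly interpolated between the two concentrations bracketing the appropriate inhibition level. Here, GI50 denotes the concentration required for 50% inhibition of growth. TGI denotes the concentration required for complete inhibition of growth.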 Some results are limits rather than exact numbers.

For `[C-]#[O+].[C-]#[O+].[C-]#[O+].[C-]#[O+].[Ir].[Ir].[O-]c1ccc2ccccc2c1C=Nc1ccc(N=Cc2c([O-])ccc3ccccc23)cc1`, the GI50 with SK-OV-3 ovarian, with HCT-116 colon, in the test on HCC-2998 colon, in the test on OVCAR-8 ovarian, in the test with IGROV1 ovarian and in the test on NCI-H226 lung was more than 100 µM each time. The GI50 with U251 CNS and with CAKI-1 renal was more than 100 µM in each case. Moreover, the TGI in the test with SK-OV-3 ovarian, in the test with HCT-116 colon, with HCC-2998 colon, with OVCAR-8 ovarian, in the test with IGROV1 ovarian and with NCI-H226 lung was more than 100 µM throughout. Further, the concentration for total growth inhibition (TGI) with U251 CNS and with CAKI-1 renal was more than 100 µM throughout.

As to `OCC(O)C(OC1OC(CO)C(O)C(O)C1O)c1nn(-c2ccccc2)c2nc3cc(Cl)c(Cl)cc3cc12` (centres undefined), the TGI in the test on SK-OV-3 ovarian, in the test with HCT-116 colon, in the test with HCC-2998 colon, in the test on OVCAR-8 ovarian and in the test on U251 CNS was more than 100 µM each time.

`CC1CC2C(=O)N(c3ccccc3)C(=O)C2c2c1c1ccccc1n2Cc1ccccc1` (centres undefined): the TGI with SK-OV-3 ovarian, in the test on HCT-116 colon, in the test with OVCAR-8 ovarian, in the test with IGROV1 ovarian, in the test with NCI-H226 lung and in the test with CAKI-1 renal was more than 100 µM each time.

As for `Cn1ccc2c(c1=O)C(=O)c1nccc3c1c-2nc1ccccc13`, the GI50 – broadly, the concentration that inhibits growth by half – was 1.64 µM in the test on MDA-MB-231 breast; 1.74 µM in the test with SK-OV-3 ovarian; 1.35 µM with HCT-116 colon; 1.72 µM in the test with HCC-2998 colon; 1.52 µM with IGROV1 ovarian; 12.5 µM in the test on NCI-H226 lung. Besides, the figures for the GI50 in the test on U251 CNS and with CAKI-1 renal were 1.38 µM and 1.44 µM, respectively. Moreover, the concentration for total growth inhibition (TGI) (as a rule, the concentration giving total growth inhibition) in the test with MDA-MB-231 breast is 3.13 µM; in the test on SK-OV-3 ovarian it was 3.15 µM; with HCT-116 colon it was 2.87 µM; in the test on HCC-2998 colon, 3.15 µM; in the test with IGROV1 ovarian, 3.87 µM; with NCI-H226 lung it was 26.4 µM. The TGI is 2.79 µM with U251 CNS and 2.85 µM in the test on CAKI-1 renal.

Turning to `O=C(O)CCSCCCN1C(=O)c2ccccc2C1=O`, the TGI in the test with SK-OV-3 ovarian, with HCT-116 colon, in the test on HCC-2998 colon, in the test with OVCAR-8 ovarian, with IGROV1 ovarian and in the test with NCI-H226 lung was more than 100 µM in each case. Further, the TGI in the test with U251 CNS is more than 100 µM.

Consider `Cc1cc(C)c2c(c1)Nc1ccccc1P2c1ccccc1` (centres undefined), for which the total growth inhibition concentration (TGI) with SK-OV-3 ovarian is more than 100 µM; in the test on HCC-2998 colon, 60 µM; with OVCAR-8 ovarian it was more than 100 µM; with IGROV1 ovarian, more than 100 µM; in the test with U251 CNS, more than 100 µM; in the test with CAKI-1 renal, 98.1 µM.

Consider `NNC(=O)CCC(=O)Nc1cc(Cl)c(Cl)cc1Cl`, for which the concentration for total growth inhibition (TGI) in the test on SK-OV-3 ovarian, in the test on HCT-116 colon, in the test with HCC-2998 colon, in the test with OVCAR-8 ovarian, with IGROV1 ovarian and in the test on NCI-H226 lung was more than 100 µM each time. The concentration for total growth inhibition (TGI) with U251 CNS and with CAKI-1 renal was more than 100 µM each time.

As to `O=C1OC(CC(=O)c2ccc(Cl)cc2Cl)C(Cl)=C1Cl` (centres undefined), the TGI is more than 63.4 µM with SK-OV-3 ovarian; 32.9 µM in the test with HCT-116 colon; 29.4 µM in the test on HCC-2998 colon; more than 60.2 µM in the test with OVCAR-8 ovarian; more than 69.9 µM in the test with IGROV1 ovarian; more than 89.5 µM in the test with NCI-H226 lung. Moreover, the concentration for total growth inhibition (TGI) is more than 72.8 µM in the test with U251 CNS and more than 70.3 µM in the test with CAKI-1 renal.

`O=c1c2cc(Br)ccc2nc(-c2ccccc2Cl)n1NCC1(O)OCC(O)C(O)C1O` (centres undefined): the total growth inhibition concentration (TGI) in the test with SK-OV-3 ovarian, in the test with HCT-116 colon, with OVCAR-8 ovarian, in the test on NCI-H226 lung, in the test with U251 CNS and with CAKI-1 renal was more than 100 µM throughout.

For the molecule `C=C(C)C(=O)OC1CC2=CC(CC3(C)OC3C3OC(=O)C(=C)C13)OC2=O` (centres undefined), the concentration for total growth inhibition (TGI) with MDA-MB-231 breast stood at 37.1 µM; in the test with SK-OV-3 ovarian, 36.8 µM; in the test on HCT-116 colon it was 17.1 µM; with HCC-2998 colon it was 34.8 µM; in the test on OVCAR-8 ovarian, 18.1 µM; with IGROV1 ovarian, 38.8 µM. Further, the TGI in the test with NCI-H226 lung amounted to 39 µM; in the test with U251 CNS, 32.5 µM; in the test on CAKI-1 renal, 12.7 µM.

As to `CS(=O)(=O)OCCn1cnc2nc(NC(=O)c3ccccc3)[nH]c(=O)c21`, the TGI in the test with SK-OV-3 ovarian, in the test with HCT-116 colon, in the test on OVCAR-8 ovarian, in the test with IGROV1 ovarian, in the test on NCI-H226 lung and with U251 CNS was more than 100 µM in each case. The molecule further displayed a TGI with CAKI-1 renal of more than 100 µM.

Consider `CC(=O)Nc1ccc(/C=N\N2C(=O)c3ccccc3C2=O)cc1`, for which the TGI with HCT-116 colon, in the test with HCC-2998 colon, with OVCAR-8 ovarian, in the test on IGROV1 ovarian, with NCI-H226 lung and in the test with CAKI-1 renal was more than 100 µM in each case.

Turning to `CN(C)CCNC(=O)c1ccc(C(=O)NCCN(C)C)c2nc3ccccc3cc12`, the total growth inhibition concentration (TGI) with SK-OV-3 ovarian is 7.5 µM; in the test with HCT-116 colon it was 6.08 µM; in the test with HCC-2998 colon it was 2.98 µM; with OVCAR-8 ovarian, 12.7 µM; in the test on IGROV1 ovarian it was more than 50.2 µM; with NCI-H226 lung, 3.6 µM. Also, the total growth inhibition concentration (TGI) is 7.85 µM in the test with U251 CNS and 9.09 µM in the test on CAKI-1 renal.

Turning to `Fc1cccc2cc3ccc4cccc5ccc(c12)c3c45`, the TGI in the test with SK-OV-3 ovarian, in the test on HCT-116 colon, in the test on HCC-2998 colon, in the test on OVCAR-8 ovarian, with IGROV1 ovarian and in the test with NCI-H226 lung was more than 100 µM each time. Moreover, the TGI in the test with U251 CNS and with CAKI-1 renal was more than 100 µM each time.

Regarding `O=c1[nH]nc2ccccc2c1Cl`, the total growth inhibition concentration (TGI) was determined as 33.5 µM in the test on SK-OV-3 ovarian; 29.9 µM in the test with HCT-116 colon; 7.27 µM in the test on HCC-2998 colon; 54.3 µM with OVCAR-8 ovarian; 28.5 µM in the test with IGROV1 ovarian; 52.8 µM with NCI-H226 lung. Moreover, the TGI was 29.2 µM in the test on U251 CNS and 12 µM in the test on CAKI-1 renal.
